The values below come from article PMC10069031 (European Journal of Medical Research, 2023).

One data set concerns the target VEGFR2 (Homo sapiens, UniProt P35968). The data set is described as follows: Competition binding assay, reference kinase.
The next data set in a line: Binding to mouse plasma. The class given is in vitro ADME.
The next data set relates to AKT. The data set is described as follows: Inhibition of AKT activation in CSF1-stimulated RAW264.7 cells (western blot). The class given is cell-based, mouse. The conditions noted are these: mean ± SD (replicates), read-out: Mean kinase IC50 values: P(S473)AKT [WB]. On the procedure:
(§1) RAW264.7 cells (10^6) were seeded into cell culture dishes 6 cm in diameter and incubated in 4 mL RPMI/10% fetal bovine serum (Biochrom) for 24 h at 37 °C in a humidified 5% CO2 atmosphere. Cells were washed once with phosphate-buffered saline (PBS) and starved in 3 mL RPMI/0.1% bovine serum albumin for another 24 h. Cells were then treated for 1 h at 37 °C with drugs at the indicated final concentrations, with 0.5% DMSO as vehicle control, or left untreated, and finally stimulated for 2 min at 37 °C with 100 ng/mL recombinant mouse CSF1 (R&D Systems) by adding 1 mL prewarmed starving medium containing 400 ng/mL CSF1. Dishes were placed on ice and cells were immediately washed with ice-cold PBS and lysed with 50 µL lysis buffer (50 mM HEPES pH 7.5, 150 mM NaCl, 1.5 mM MgCl2, 10% glycerol, 1% Triton X-100, 0.5% desoxycholate, 0.2% sodium dodecyl sulfate, 1 mM ethylene glycol-bis[β-aminoethyl ether]-N,N,N′,N′-tetraacetic acid, 100 mM NaF, 10 mM Na4P2O7, 1 mM Na3VO4, 1% Phosphatase Inhibitor Cocktail 3 [Sigma-Aldrich], 1 mM phenylmethyl sulfonyl fluoride, Complete Protease Inhibitor Cocktail [Roche CustomBiotech; 1 tablet/10 mL], and 50 U/mL Benzonase [Sigma-Aldrich]). Lysed cells were scraped into Eppendorf tubes, incubated on ice for 20 min, and centrifuged at 4 °C for 10 min at 13,000 rpm; supernatants (lysates) were transferred into new tubes and stored at −80 °C.
(§2) Protein concentrations were determined using Pierce bicinchoninic acid assay (Thermo Fisher Scientific) and 40 µg/lane of total lysate was separated by SDS-PAGE on 4–12% Criterion XT Bis–Tris Gels (Bio-Rad) and subsequently transferred to polyvinylidene difluoride membranes using the Trans Blot Turbo Blotting System (Bio-Rad). For antigen detection, membranes were blocked with PBS Odyssey blocking reagent (LI-COR Biosciences) for 1 h at room temperature (RT). Primary antibodies were incubated overnight at 4 °C and the fluorescent secondary antibodies were incubated for 1 h at RT. After each antibody incubation, blots were washed with PBS with 0.05% Tween 20 (Carl Roth) for 15–30 min at RT. Fluorescent signals were quantitatively captured using the Odyssey DLx Infrared Imaging System (LI-COR Biosciences) and the half-maximal inhibitory concentration (IC50) values were calculated using GraphPad software (version 7 or newer).
(In general: Immunoblotting shows a protein as a band on a membrane.)

In the next data set the target is T1, murine CSF1R (Mus musculus, UniProt P09581).
T1 construct: Western blot analysis of total lysates (40 µg/lane) from mouse RAW264.7 cells treated as indicated; endogenous in cells; host or cells: RAW264.7 (murine macrophages)
T1 sequence (P09581 20-977): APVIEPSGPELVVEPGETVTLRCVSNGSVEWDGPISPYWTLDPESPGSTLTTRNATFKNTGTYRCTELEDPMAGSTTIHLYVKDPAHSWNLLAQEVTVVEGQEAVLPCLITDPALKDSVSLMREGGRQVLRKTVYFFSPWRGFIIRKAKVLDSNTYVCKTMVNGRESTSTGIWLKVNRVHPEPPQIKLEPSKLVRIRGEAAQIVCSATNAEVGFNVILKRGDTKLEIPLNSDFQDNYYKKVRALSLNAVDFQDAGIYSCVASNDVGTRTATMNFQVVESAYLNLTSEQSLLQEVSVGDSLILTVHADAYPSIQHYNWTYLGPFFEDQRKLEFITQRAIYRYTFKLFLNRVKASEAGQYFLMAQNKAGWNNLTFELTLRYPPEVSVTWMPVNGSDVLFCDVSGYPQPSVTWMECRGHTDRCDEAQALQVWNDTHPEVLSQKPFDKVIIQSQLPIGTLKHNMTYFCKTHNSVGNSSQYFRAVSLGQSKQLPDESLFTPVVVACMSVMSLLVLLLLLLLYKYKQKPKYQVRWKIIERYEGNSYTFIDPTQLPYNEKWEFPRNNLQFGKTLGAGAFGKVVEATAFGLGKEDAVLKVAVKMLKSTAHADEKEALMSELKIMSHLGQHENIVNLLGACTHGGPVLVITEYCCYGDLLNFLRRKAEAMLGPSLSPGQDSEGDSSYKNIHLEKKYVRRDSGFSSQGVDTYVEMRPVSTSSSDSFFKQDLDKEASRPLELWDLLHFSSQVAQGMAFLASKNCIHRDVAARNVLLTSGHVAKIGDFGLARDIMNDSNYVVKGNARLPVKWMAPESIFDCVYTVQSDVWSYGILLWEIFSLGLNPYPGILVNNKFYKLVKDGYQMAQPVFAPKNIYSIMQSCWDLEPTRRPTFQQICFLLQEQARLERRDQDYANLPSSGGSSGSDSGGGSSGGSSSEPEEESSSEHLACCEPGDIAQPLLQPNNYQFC
As to the kind of experiment: CSF1R inhibition in RAW264.7 cells (western blot of pCSF1R). The class given is cell-based. The conditions noted are these: RAW264.7 cells; for IC50: drug 1 h, CSF1 100 ng/mL 2 min, mean ± SD (replicates), M-4, M-5 from pCSF1R bands without relating to total CSF1R; for signal of total CSF1R: western blot. On the procedure:
as §1, §2

Another data set has as its system ERK1/2. As to the kind of experiment: Inhibition of ERK activation in CSF1-stimulated RAW264.7 cells (western blot). The class given is cell-based, mouse. The settings on record: mean ± SD (replicates), read-out: Mean kinase IC50 values: P(T185,202;Y187,204) ERK1/2 [WB]. On the procedure: as §1, §2
The mark [1] stands for this setting: read-out: Mean kinase IC50 values: P(Y559)CSF1R [WB].
[2] abbreviates: read-out: Mean kinase IC50 values: P(Y721)CSF1R [WB].

SMILES strings stand for the structures. Where two headings read alike, the source gives them in different places.

By IC50 is commonly meant the midpoint of a concentration-inhibition curve.

Chain of VEGFR2 (P35968 20-1356, species assumed): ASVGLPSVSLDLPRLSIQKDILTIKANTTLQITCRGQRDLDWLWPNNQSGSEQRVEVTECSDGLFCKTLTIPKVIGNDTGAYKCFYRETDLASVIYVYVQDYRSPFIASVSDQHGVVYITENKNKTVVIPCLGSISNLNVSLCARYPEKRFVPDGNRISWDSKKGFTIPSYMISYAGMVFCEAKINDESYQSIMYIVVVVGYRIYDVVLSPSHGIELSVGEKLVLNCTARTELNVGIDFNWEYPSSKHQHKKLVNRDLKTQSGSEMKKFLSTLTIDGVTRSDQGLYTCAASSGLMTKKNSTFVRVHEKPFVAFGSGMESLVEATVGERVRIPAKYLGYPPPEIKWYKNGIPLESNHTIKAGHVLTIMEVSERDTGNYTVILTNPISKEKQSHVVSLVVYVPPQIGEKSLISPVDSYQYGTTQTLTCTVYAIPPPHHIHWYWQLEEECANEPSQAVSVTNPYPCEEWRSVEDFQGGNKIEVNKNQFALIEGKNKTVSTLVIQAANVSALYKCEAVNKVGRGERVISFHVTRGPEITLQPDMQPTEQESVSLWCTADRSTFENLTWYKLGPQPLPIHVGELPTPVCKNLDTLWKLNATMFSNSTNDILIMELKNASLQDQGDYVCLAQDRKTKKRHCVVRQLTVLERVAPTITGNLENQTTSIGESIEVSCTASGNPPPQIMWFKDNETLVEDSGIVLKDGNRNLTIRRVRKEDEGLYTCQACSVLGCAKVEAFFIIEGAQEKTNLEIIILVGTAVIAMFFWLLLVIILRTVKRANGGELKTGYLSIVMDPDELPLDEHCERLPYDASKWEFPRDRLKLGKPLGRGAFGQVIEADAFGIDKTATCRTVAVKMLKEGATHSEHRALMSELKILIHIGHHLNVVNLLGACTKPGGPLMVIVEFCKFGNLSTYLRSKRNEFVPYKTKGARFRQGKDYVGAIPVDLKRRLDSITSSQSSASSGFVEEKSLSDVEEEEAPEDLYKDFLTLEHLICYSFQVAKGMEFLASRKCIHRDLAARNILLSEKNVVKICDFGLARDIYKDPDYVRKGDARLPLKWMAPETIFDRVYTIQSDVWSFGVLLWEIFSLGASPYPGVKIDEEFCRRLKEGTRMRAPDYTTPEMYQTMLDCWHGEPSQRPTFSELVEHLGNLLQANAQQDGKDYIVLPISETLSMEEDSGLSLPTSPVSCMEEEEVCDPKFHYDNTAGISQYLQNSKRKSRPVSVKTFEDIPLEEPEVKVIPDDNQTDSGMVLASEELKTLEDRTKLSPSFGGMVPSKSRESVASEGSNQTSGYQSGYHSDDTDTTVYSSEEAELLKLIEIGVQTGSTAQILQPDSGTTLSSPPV

Take `NC(=O)c1cc(Oc2ccc(NC(=O)Nc3ccc(Cl)c(C(F)(F)F)c3)c(F)c2)ccn1` [M-4]: the IC50 on VEGFR2 is 37 nM; with AKT, 276 ± 30 nM; at murine CSF1R (setting [1]), 273 ± 101 nM; on murine CSF1R (setting [2]), 185 ± 29 nM; in the data set with ERK1/2, 783 ± 34 nM. In addition, the unbound fraction in “Binding to mouse plasma” is on record as 0.332%. Besides, the “signal of total CSF1R” value at murine CSF1R is recorded as “destabilized”.
`NC(=O)c1cc(Oc2ccc(NC(=O)Nc3ccc(Cl)c(C(F)(F)F)c3)c(F)c2)cc[n+]1[O-]` [M-5]: the IC50 with AKT came out at 93 ± 110 nM; on murine CSF1R (setting [1]) it was 19 ± 15 nM; at murine CSF1R (setting [2]) it was 18 ± 14 nM; in the data set on ERK1/2, 276 ± 197 nM. In addition, the “signal of total CSF1R” value on murine CSF1R was “destabilized”.
Turning to `CNC(=O)c1cc(Oc2ccc(NC(=O)Nc3ccc(Cl)c(C(F)(F)F)c3)c(F)c2)cc[n+]1[O-]` [M-2], the IC50 in the data set on AKT turned out to be 63 ± 37 nM; at murine CSF1R (setting [1]) it was 66 ± 17 nM; on murine CSF1R (setting [2]), 18 ± 7 nM; in the data set with ERK1/2 it was 239 ± 239 nM.
